# According to patent US9241484B2, “Compositions of dibromomalonamide and their use as biocides” (Dow Global Technologies LLC, priority 2011, dated 2016):
# Test system: mixture of Pseudomonas aeruginosa, Klebsiella pneumoniae, Staphylococcus aureus, and Bacillus subtilis
# Assay: Growth inhibition assay (microtiter plate-based synergy assay)
# Settings: active used alone; dilute mineral salts medium pH 7.5; 37° C., 24 hr; OD580
# Excerpt: Growth Inhibition Assay. […] Regardless of the mechanism of action, the impact of a biocide (or combination of biocides) can be measured over time on the basis of an increase in the size of the community.
# The assay measures the efficacy of one or more biocides at preventing growth of a consortium of bacteria in a dilute mineral salts medium. The medium contains (in mg/l) the following components: FeCl3.6H2O (1); CaCl2.2H2O (10); MgSO4.7H2O (22.5); (NH4)2SO4 (40); KH2PO4 (10); K2HPO4 (25.5); Yeast Extract (10); and glucose (100). After all components are added to deionized water, the pH of the medium is adjusted to 7.5. Following filter sterilization, aliquots are dispensed in 100 μl quantities to sterile microtiter plate wells. Dilutions of 2,2-dibromomalonamide (“DBMAL”) and/or “Biocide B” are then added to the microtiter plate. After preparing the combinations of actives as illustrated below, each well is inoculated with 100 μl of a cell suspension containing ca. 1×10^6 cells per milliliter of a mixture of Pseudomonas aeruginosa, Klebsiella pneumoniae, Staphylococcus aureus, and Bacillus subtilis. The final total volume of medium in each well is 300 μl. Once prepared as described herein, the concentration of each active ranges from 25 ppm to 0.195 ppm as illustrated in Table 1. The resulting matrix allows testing of eight concentrations of each active and 64 combinations of actives in the ratios (of actives).
# Immediately after the microtiter plates are prepared, the optical density (OD) readings for each well is measured at 580 nm and the plates are then incubated at 37° C. for 24 hr. After the incubation period, the plates are gently agitated before OD580 values are collected. The OD580 values at T0 are subtracted from T24 values to determine the total amount of growth (or lack thereof) that occurs. These values are used to calculate the percent inhibition of growth caused by the presence of each biocide and each of the 64 combinations. A 90% inhibition of growth is used as a threshold for calculating synergy index (SI) values with the following equation: Synergy Index=MDBMAL/CDBMAL+MB/CB
# where • CDBMAL: Concentration of DBMAL required to inhibit ≧90% of bacterial growth when used alone • CB: Concentration of biocide (B) required to inhibit ≧90% of bacterial growth when used alone. • MDBMAL: Concentration of DBMAL required to inhibit ≧90% of bacterial growth when used in combination with biocide (B). • MB: Concentration of biocide (B) required to inhibit ≧90% of bacterial growth when used in combination with DBMAL The SI values are interpreted as follows: • SI<1: Synergistic combination • SI=1: Additive combination • SI>1: Antagonistic combination
# In the Examples below, the amounts of biocides in the solution are measured in mg per liter of solution (mg/l). Since solution densities are approximately 1.00, the mg/l measurement corresponds to weight and can be expressed as parts per million (ppm). Both units may therefore be used interchangeably in the Examples.
row,Molecule,I90 value (minimum concentration to result in at least 90% inhibition of growth) [mg/L]
1,"CC1(C)C(=O)N(Br)C(=O)N1Br [DBDMH, dibromodimethylhydantoin]",3.13
2,"NC(=O)C(Br)(Br)C(N)=O [DBMAL, 2,2-dibromomalonamide]",6.25
3,"CC1(C)C(=O)N(Cl)C(=O)N1Cl [DCDMH, dichlorodimethylhydantoin]",0.78
4,"OBr [HOBr, hypobromous acid]",12.5
5,"OCl [HOCl, hypochlorous acid]",0.78
6,monochlorodimethylhydantoin [MCDMH],3.13
